Measured values taken from US20240189330A1, “Compositions and Methods for Inhibiting and Treating Viral Infections” (The Regents of the University of California, priority 2021, published 2024).
Entries after “also recorded” stand apart in the source; their conditions may differ. Structures can show the parent of a compound that is named as a salt.

Tests used:
[1] = system: Human rhinovirus type 16 (HRV16); format: cell-based
[2] = system: Influenza A Virus, subtype H1N1; format: cell-based
human mammalian cells = conditions: cited from earlier work

| Compound | HRV16 viral replication by qPCR [1] | H1N1 viral replication by qPCR [2] | concentration physiologically relevant, efficacious and non-cytotoxic (human mammalian cells) |
| --- | --- | --- | --- |
| COC(=O)/C=C/C(=O)OC [DMF, dimethyl fumarate] | minimally inhibit HRV16 replication; also recorded: little antiviral activity | inhibit H1N1 replication; also recorded: inhibit the replication |  |
| COC1=C(OC)C(=O)C(CCCCCCCCCC[P+](c2ccccc2)(c2ccccc2)c2ccccc2)=C(C)C1=O [Mito-MES, 10-(4,5-dimethoxy-2-methyl-3,6-dioxo-1,4-cyclohexadienyl) decyl triphenylphosphonium] |  |  | < 2000 nM |
